Measurements published in US20080045512A1, “Benzoate salt of 4-(5-methyl-oxazolo[4,5-b]-pyridin-2-yl)-1,4-diazabicyclo[3.2.2]nonane” (Pfizer Inc., priority 2006, published 2008).
Where a name gives a salt, the structure may show the parent alone.

How the values were obtained:
[1] = cited from earlier work
[2] = cited from earlier work; remark: listed apart in the source
[3] = Hygroscopicity by dynamic vapor sorption (isothermal moisture sorption analysis); format: physicochemical; conditions: for hygroscopicity (result in words): dynamic vapor sorption, 25° C.
Method: Hygroscopicity was assessed using a dynamic vapor sorption technique in which an accurately weighed sample is subjected to progressively changing water vapor pressure while simultaneously recording the weight change. The experiment is conducted isothermally at 25° C.
For 4-(5-methyloxazolo[4,5-b]pyridin-2-yl)-1,4-diazabicyclo[3.2.2]nonane benzoate Form A, less than 0.1% increase in weight was detected at 90±2% relative humidity during an isothermal (24.9±0.1° C.) moisture sorption analysis conducted from approximately 1% to 90% (±2%) humidity. Considering standard deviation, it is considered that increase in weight is less than 0.2%.

[4] = Comparison of salts of Formula I: physical properties tested and observed; format: physicochemical
Method: Physical properties of various salts of Formula I were tested and observed.

Question: For `O=C1Cc2cc(CCN3CCN(c4nsc5ccccc45)CC3)c(Cl)cc2N1` [Ziprasidone, 5-[2-[4-(1,2-benzisothiazol-3-yl)piperazin-1-yl]ethyl]-6-chloroindolin-2-one], which half-life ([1]; in vivo) is on record?
Answer: Its half-life is 6 to 7 h.

Question: And the Oral bioavailability ([1]; taken with food)?
Answer: Its Oral bioavailability is “approximately 60%”.

Question: And the protein binding [2]?
Answer: The protein binding was “extensive”.

Question: Which “increase in weight in moisture sorption analysis” value ([3]; at 90±2% relative humidity, isothermal 24.9±0.1° C., from approximately 1% to 90% (±2%) humidity) does the source give for `Cc1ccc2oc(N3CCN4CCC3CC4)nc2n1` [benzoate salt of Formula I, 4-(5-methyloxazolo[4,5-b]pyridin-2-yl)-1,4-diazabicyclo[3.2.2]nonane benzoate] here?
Answer: Its value is “less than 0.1%”.

Question: And the “hygroscopicity (result in words)” value [3]?
Answer: Its value is “relatively non-hygroscopic”.

Question: What about the “hygroscopicity (result in words)” value ([3]; listed as 4-(5-methyloxazolo[4,5-b]pyridin-2-yl)-1,4-diazabicyclo[3.2.2]nonane benzoate Fo) of the same compound?
Answer: Its value is “non-hygroscopic”.

Question: With L-lactate as the compound, how does the “hygroscopicity (result in words)” value [4] read?
Answer: Its value is “undesirable hygroscopicity”.

Question: For fumarate, which “hygroscopicity (result in words)” value [4] is on record?
Answer: The value was “undesirable hygroscopicity”.
